{
  "source": "patent US20210137117A1",
  "about": "“HERBICIDAL MIXTURES” (Bayer Aktiengesellschaft, priority 2017, published 2021)",
  "assay_in_all_cases": "Pre-emergence action against weeds (greenhouse)",
  "type_in_all_cases": "in vivo",
  "key": {"HORVS (Hordeum vulgare)": {"tested_on": "HORVS (Hordeum vulgare)", "from_the_text": "(§1) Depending on the trial conditions, the soil of the standard field soil is sterile or not sterile.\n(§2) The amount of water used for spray application was 300l/ha.\nHORVS (Hordeum vulgare)—Barley, spring\n(§3) Insofar as herbicidal effects of the compositions according to the invention compared to mixtures of the prior art or compared to components applied individually against economically important mono- and dicotyledonous harmful plants were the centre of attention, the synergistic herbicidal activities were calculated using Colby's formula (cf. S. R. Colby; Weeds 15 (1967), 20-22): […]"}, "PAPRH (Papaver rhoeas)": {"tested_on": "PAPRH (Papaver rhoeas)", "from_the_text": "as §1, §2\nPAPRH (Papaver rhoeas)—Poppy, common\nas §3"}, "[1]": {"tested_on": "RAPRA (Raphanus raphanistrum)", "from_the_text": "as §1, §2\nRAPRA (Raphanus raphanistrum)—Charlock, jointed\nas §3"}, "CENCY (Centaurea cyanus)": {"tested_on": "CENCY (Centaurea cyanus)", "from_the_text": "as §1, §2\nCENCY (Centaurea cyanus)—Cornflower\nas §3"}, "BRSNW (Brassica napus)": {"tested_on": "BRSNW (Brassica napus)", "from_the_text": "as §1, §2\nBRSNW (Brassica napus)—Rape, winter\nas §3"}, "BROST (Bromus sterilis)": {"tested_on": "BROST (Bromus sterilis)", "from_the_text": "as §1, §2\nBROST (Bromus sterilis)—Bromegrass, barren\nas §3"}, "AVEFA (Avenafatua)": {"tested_on": "AVEFA (Avenafatua)", "from_the_text": "as §1, §2\nAVEFA (Avenafatua)—Wild oat\nas §3"}, "[2]": {"tested_on": "ALOMY—resistant (Alopecurus myosuroides)", "from_the_text": "as §1, §2\nALOMY—resistant (Alopecurus myosuroides) resistant to herbicidally active compounds of the HRAC groups A and B; population mixture of field origin having increased metabolic resistance (IMR) and some target site resistance (TSR).\nas §3"}, "[3]": {"settings": "pre-emergence, dose 100 g AS/ha"}},
  "note": "Several values for one entry are separate records, joined by “and”; a condition that tells them apart may be missing. Equal entries are not always repeated.",
  "data": [
    {"compound": "CC1(C)CON(Cc2ccc(Cl)cc2Cl)C1=O", "note": "[2-[(2,4-dichlorophenyl)methyl]-4,4-dimethyl-3-isoxazolidinone]", "values": [
      {"measurement": "herbicidal action", "setting": "HORVS (Hordeum vulgare); 10 g AS/ha", "result": 0, "unit": "%"},
      {"measurement": "herbicidal action", "setting": "HORVS (Hordeum vulgare); 25 g AS/ha", "result": 2, "unit": "%"},
      {"measurement": "herbicidal action", "setting": "HORVS (Hordeum vulgare); 50 g AS/ha", "result": 5, "unit": "%"},
      {"measurement": "herbicidal action", "setting": "HORVS (Hordeum vulgare); 100 g AS/ha", "result": 15, "unit": "%"},
      {"measurement": "herbicidal action", "setting": "HORVS (Hordeum vulgare); 200 g AS/ha", "result": 40, "unit": "%"},
      {"measurement": "herbicidal action", "setting": "HORVS (Hordeum vulgare); 250 g AS/ha", "result": 50, "unit": "%"},
      {"measurement": "herbicidal action", "setting": "HORVS (Hordeum vulgare); 400 g AS/ha", "result": 60, "unit": "%"},
      {"measurement": "herbicidal action", "setting": "HORVS (Hordeum vulgare); 500 g AS/ha", "result": 60, "unit": "%"},
      {"measurement": "Herbicidal action (crop damage) HORVS", "setting": "HORVS (Hordeum vulgare); [3]", "result": 15},
      {"measurement": "herbicidal action", "setting": "PAPRH (Papaver rhoeas); 250 g AS/ha", "result": 95, "unit": "%"},
      {"measurement": "herbicidal action", "setting": "PAPRH (Papaver rhoeas); 400 g AS/ha", "result": 95, "unit": "%"},
      {"measurement": "herbicidal action", "setting": "PAPRH (Papaver rhoeas); 500 g AS/ha", "result": 95, "unit": "%"},
      {"measurement": "herbicidal action", "setting": "[1]; 10 g AS/ha", "result": 0, "unit": "%"},
      {"measurement": "herbicidal action", "setting": "[1]; 25 g AS/ha", "result": 5, "unit": "%"},
      {"measurement": "herbicidal action", "setting": "[1]; 50 g AS/ha", "result": 20, "unit": "%"},
      {"measurement": "herbicidal action", "setting": "[1]; 100 g AS/ha", "result": 40, "unit": "%"},
      {"measurement": "herbicidal action", "setting": "[1]; 200 g AS/ha", "result": 50, "unit": "%"},
      {"measurement": "herbicidal action", "setting": "[1]; 250 g AS/ha", "result": 60, "unit": "%"},
      {"measurement": "herbicidal action", "setting": "[1]; 400 g AS/ha", "result": 80, "unit": "%"},
      {"measurement": "herbicidal action", "setting": "[1]; 500 g AS/ha", "result": 90, "unit": "%"},
      {"measurement": "Herbicidal action RAPRA", "setting": "[1]; [3]", "result": 40},
      {"measurement": "herbicidal action", "setting": "CENCY (Centaurea cyanus); 10 g AS/ha", "result": 0, "unit": "%"},
      {"measurement": "herbicidal action", "setting": "CENCY (Centaurea cyanus); 25 g AS/ha", "result": 0, "unit": "%"},
      {"measurement": "herbicidal action", "setting": "CENCY (Centaurea cyanus); 50 g AS/ha", "result": 10, "unit": "%"},
      {"measurement": "herbicidal action", "setting": "CENCY (Centaurea cyanus); 100 g AS/ha", "result": 70, "unit": "%"},
      {"measurement": "herbicidal action", "setting": "CENCY (Centaurea cyanus); 200 g AS/ha", "result": 88, "unit": "%"},
      {"measurement": "Herbicidal action CENCY", "setting": "CENCY (Centaurea cyanus); [3]", "result": 70},
      {"measurement": "herbicidal action", "setting": "BRSNW (Brassica napus); 10 g AS/ha", "result": 0, "unit": "%"},
      {"measurement": "herbicidal action", "setting": "BRSNW (Brassica napus); 25 g AS/ha", "result": 0, "unit": "%"},
      {"measurement": "herbicidal action", "setting": "BRSNW (Brassica napus); 50 g AS/ha", "result": 0, "unit": "%"},
      {"measurement": "herbicidal action", "setting": "BRSNW (Brassica napus); 100 g AS/ha", "result": 0, "unit": "%"},
      {"measurement": "herbicidal action", "setting": "BRSNW (Brassica napus); 200 g AS/ha", "result": 5, "unit": "%"},
      {"measurement": "herbicidal action", "setting": "BRSNW (Brassica napus); 250 g AS/ha", "result": 20, "unit": "%"},
      {"measurement": "herbicidal action", "setting": "BRSNW (Brassica napus); 400 g AS/ha", "result": 20, "unit": "%"},
      {"measurement": "herbicidal action", "setting": "BRSNW (Brassica napus); 500 g AS/ha", "result": 20, "unit": "%"},
      {"measurement": "Herbicidal action BRSNW", "setting": "BRSNW (Brassica napus); [3]", "result": 0},
      {"measurement": "herbicidal action", "setting": "BROST (Bromus sterilis); 10 g AS/ha", "result": 0, "unit": "%"},
      {"measurement": "herbicidal action", "setting": "BROST (Bromus sterilis); 25 g AS/ha", "result": 0, "unit": "%"},
      {"measurement": "herbicidal action", "setting": "BROST (Bromus sterilis); 50 g AS/ha", "result": 0, "unit": "%"},
      {"measurement": "herbicidal action", "setting": "BROST (Bromus sterilis); 100 g AS/ha", "result": 20, "unit": "%"},
      {"measurement": "herbicidal action", "setting": "BROST (Bromus sterilis); 200 g AS/ha", "result": 30, "unit": "%"},
      {"measurement": "herbicidal action", "setting": "BROST (Bromus sterilis); 250 g AS/ha", "result": 65, "unit": "%"},
      {"measurement": "herbicidal action", "setting": "BROST (Bromus sterilis); 400 g AS/ha", "result": 70, "unit": "%"},
      {"measurement": "herbicidal action", "setting": "BROST (Bromus sterilis); 500 g AS/ha", "result": 75, "unit": "%"},
      {"measurement": "Herbicidal action BROST", "setting": "BROST (Bromus sterilis); [3]", "result": 20},
      {"measurement": "herbicidal action", "setting": "AVEFA (Avenafatua); 10 g AS/ha", "result": 0, "unit": "%"},
      {"measurement": "herbicidal action", "setting": "AVEFA (Avenafatua); 25 g AS/ha", "result": 5, "unit": "%"},
      {"measurement": "herbicidal action", "setting": "AVEFA (Avenafatua); 50 g AS/ha", "result": 15, "unit": "%"},
      {"measurement": "herbicidal action", "setting": "AVEFA (Avenafatua); 100 g AS/ha", "result": 50, "unit": "%"},
      {"measurement": "herbicidal action", "setting": "AVEFA (Avenafatua); 200 g AS/ha", "result": 70, "unit": "%"},
      {"measurement": "herbicidal action", "setting": "AVEFA (Avenafatua); 250 g AS/ha", "result": 75, "unit": "%"},
      {"measurement": "herbicidal action", "setting": "AVEFA (Avenafatua); 400 g AS/ha", "result": 75, "unit": "%"},
      {"measurement": "herbicidal action", "setting": "AVEFA (Avenafatua); 500 g AS/ha", "result": 80, "unit": "%"},
      {"measurement": "Herbicidal action AVEFA", "setting": "AVEFA (Avenafatua); [3]", "result": 50},
      {"measurement": "herbicidal action", "setting": "[2]; 10 g AS/ha", "result": 0, "unit": "%"},
      {"measurement": "herbicidal action", "setting": "[2]; 25 g AS/ha", "result": 0, "unit": "%"},
      {"measurement": "herbicidal action", "setting": "[2]; 50 g AS/ha", "result": "10% and 20%"},
      {"measurement": "herbicidal action", "setting": "[2]; 100 g AS/ha", "result": 60, "unit": "%"},
      {"measurement": "herbicidal action", "setting": "[2]; 200 g AS/ha", "result": 80, "unit": "%"},
      {"measurement": "herbicidal action", "setting": "[2]; 250 g AS/ha", "result": 93, "unit": "%"},
      {"measurement": "herbicidal action", "setting": "[2]; 400 g AS/ha", "result": 95, "unit": "%"}
    ]}
  ]
}
